Laboratory results taken from article PMC3499368, “Evolution of Minimal Specificity and Promiscuity in Steroid Hormone Receptors” (PLoS Genetics, 2012).
Like-named read-outs stand apart in the source and are kept apart here.

Experiments:
AncSR1 = assay: luciferase reporter assay, inhibition of AncSR1 in the presence of estradiol; type: cell-based; conditions: with estradiol
AncSR2 = assay: luciferase reporter assay, inhibition of AncSR2 in the presence of EC80 11-deoxycorticosterone; conditions: in the presence of EC80 11-deoxycorticosterone (1.7 nM)
AncSR1-LBD = assay: luciferase reporter gene assay, Gal4-DBD fusion of AncSR1-LBD in CHO-K1 cells, activation; type: cell-based
Description: (§1) To experimentally test these hypotheses, we synthesized cDNAs for the AncSR1 and AncSR2 LBD protein sequences, expressed them as Gal4-DBD fusion constructs, and characterized their sensitivity to hormones using luciferase reporter gene assays.

AncSR2-LBD = assay: luciferase reporter gene assay, Gal4-DBD fusion of AncSR2-LBD in CHO-K1 cells, activation; type: cell-based; conditions: for EC50: AncSR2, representative dose activation curves (Fig. S4) and Table S5 sections c-i
Description: as §1, with “assays. […] It was unresponsive to a broad array of androgens, progestagens, and corticosteroids, as well as cholesterol (Figure 2A, Figure S3).” for “assays.”
For AncSR2, we identified all plausible alternate reconstructions (those with posterior probability >0.20 excluding biochemically similar K/R, D/E, S/T, and I/L differences) and introduced each alternate state individually into the AncSR2 background using the Quikchange Mutagenesis kit (Stratagene), verified clones by sequencing, and repeated the activation assays with each version of AncSR2 (Figure S6). The ML AncSR2 sequence reconstructed on the ML tree had high baseline activation in the absence of ligand; this phenotype is almost certainly an artifact, because constitutive baseline activity is not present in any of AncSR2's extant descendants; it is well-established that some amino acid replacements can cause nuclear receptors to become constitutive by marginally stabilizing the active conformation in the absence of hormone. […] The “constitutive” Leu79 state is weakly supported on the ML tree (PP = 0.59), and has no support (PP = 0.00) on the phylogeny that is most parsimonious in terms of gene duplications and losses; in contrast, the “non-constitutive” state Met79 has PP = 0.41 on the ML tree and PP = 1.00 on the rearranged gene duplication/loss tree (Figure S12, Table S8). The AncSR2 sequence used for all experiments reported in the text therefore contains state Met79. The other alternate reconstructions were then reintroduced into this AncSR2 sequence: none qualitatively changed the receptor's sensitivity to the various classes of steroid hormones, except for A171V, which conferred constitutive activity (Figure S6).

[1] = biological target: T1, human estrogen receptor alpha (hERα) (Homo sapiens, UniProt P03372); assay: luciferase reporter assay, human ERα LBD; type: cell-based; conditions: Fig. S8
T1 sequence (P03372 311-595 limits assumed): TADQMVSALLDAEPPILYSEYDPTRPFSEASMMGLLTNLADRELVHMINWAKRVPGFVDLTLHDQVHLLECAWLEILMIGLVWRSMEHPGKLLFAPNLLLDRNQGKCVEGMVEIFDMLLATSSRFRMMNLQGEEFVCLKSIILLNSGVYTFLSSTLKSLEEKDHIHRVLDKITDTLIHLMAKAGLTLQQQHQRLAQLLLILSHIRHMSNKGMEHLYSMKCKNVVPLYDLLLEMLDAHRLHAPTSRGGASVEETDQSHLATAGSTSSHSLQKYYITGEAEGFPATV

[2] = biological target: T2, estrogen receptor ligand binding domain (Capitella capitata, UniProt C0IRV2); assay: activation of the estrogen receptor ligand binding domain of Capitella capitata
T2 sequence (C0IRV2 151-381): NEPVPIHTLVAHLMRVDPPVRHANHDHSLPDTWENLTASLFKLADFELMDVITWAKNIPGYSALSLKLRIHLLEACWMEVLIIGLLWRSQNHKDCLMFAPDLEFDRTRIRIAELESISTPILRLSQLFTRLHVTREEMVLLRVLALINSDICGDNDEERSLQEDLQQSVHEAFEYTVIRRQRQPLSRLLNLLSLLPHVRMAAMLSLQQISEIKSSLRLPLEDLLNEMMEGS
Description: (§5) Fig. S8 Activation of the estrogen receptor ligand binding domains of two annelids (Capitella capitata, a polychaete worm &
(§6) Values adjacent to the hormone legends (red squares and black triangles) indicate the EC50 value for

[3] = biological target: T3, estrogen receptor ligand binding domain (Platynereis dumerilii, UniProt C0IR13); assay: activation of the estrogen receptor ligand binding domain of Platynereis dumerilii
T3 sequence (C0IR13 197-482): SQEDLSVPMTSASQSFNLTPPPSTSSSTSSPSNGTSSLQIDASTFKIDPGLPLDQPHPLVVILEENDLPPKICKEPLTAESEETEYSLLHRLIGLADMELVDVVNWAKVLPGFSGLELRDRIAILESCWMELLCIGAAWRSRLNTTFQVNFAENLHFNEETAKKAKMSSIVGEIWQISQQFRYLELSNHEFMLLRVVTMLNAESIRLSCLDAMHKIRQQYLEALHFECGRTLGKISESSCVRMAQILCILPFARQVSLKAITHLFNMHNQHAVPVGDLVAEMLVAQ
Description: as §5, §6

[4] = biological target: T4, human mineralocorticoid receptor (hMR) (Homo sapiens, UniProt P08235); assay: luciferase reporter assay, human MR LBD; type: cell-based
T4 sequence (P08235 736-984): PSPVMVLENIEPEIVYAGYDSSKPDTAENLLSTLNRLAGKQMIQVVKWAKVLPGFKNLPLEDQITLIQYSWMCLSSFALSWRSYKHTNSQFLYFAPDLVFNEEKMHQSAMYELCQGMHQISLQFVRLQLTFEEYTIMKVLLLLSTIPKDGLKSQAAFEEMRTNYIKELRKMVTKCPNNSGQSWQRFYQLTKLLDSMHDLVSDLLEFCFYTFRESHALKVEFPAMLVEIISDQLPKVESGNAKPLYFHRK

AncSR1_Alt1 = assay: luciferase reporter assay, alternative reconstruction AncSR1_Alt1; type: cell-based; conditions: Alt1, Fig. S5B
Description: (§2) To determine the robustness of functional inferences to statistical uncertainty in the reconstruction of AncSR1 and AncSR2, we used two approaches. AncSR1 had too many ambiguously reconstructed sites to examine each such residue individually, so we computationally sampled from the posterior probability distribution of reconstructed amino acid states to generate a cloud of possible ancestral sequences, each harboring a large number of alternate states. Specifically, we generated 1,000,000 possible ancestral sequences by sampling from the posterior probability distribution of states at each site. […] We synthesized these five radically alternative ancestral reconstructions de novo and repeated the functional assays.
(§3) A) Distribution of posterior probabilities of 1 million protein sequences assembled by sampling amino acid states at each site from the posterior probability distribution for AncSR1 LBD. The ML reconstruction (AncSR1-ML) and the five alternative sequences with the highest posterior probability (Alt1-Alt5) in the 1 million samples are […]
(§4) The column height and error bars indicate the mean and SEM of three independent experiments, respectively. […]

AncSR1_Alt2 = assay: luciferase reporter assay, alternative reconstruction AncSR1_Alt2; type: cell-based; conditions: Alt2, Fig. S5B
Description: as §2, §3, §4

AncSR1_Alt3 = assay: luciferase reporter assay, alternative reconstruction AncSR1_Alt3; type: cell-based; conditions: Alt3, Fig. S5B
Description: as §2, §3, §4

AncSR1_Alt4 = assay: luciferase reporter assay, alternative reconstruction AncSR1_Alt4; type: cell-based; conditions: Alt4, Fig. S5B
Description: as §2, §3, §4

AncSR1_Alt5 = assay: luciferase reporter assay, alternative reconstruction AncSR1_Alt5; type: cell-based; conditions: Alt5, Fig. S5B
Description: as §2, §3, §4

[5] = AncSR1, representative dose activation curves (Fig. S3) and Table S5 section b
[6] = AncSR2, Table S5 section c, pairs H1/H2: 23/8, 19/18, listed as given under Hormone 1

For `CC/C(=C(\c1ccc(O)cc1)c1ccc(OCCN(C)C)cc1)c1ccccc1` [4-hydroxytamoxifen, 4-Hydroxytamoxifen], the “inhibition of AncSR1 (in words)” value (AncSR1) was “competitively inhibited” and the “inhibition of AncSR2 (in words)” value (AncSR2) was “not inhibited”.

For `C[C@]12CC[C@@H]3c4ccc(O)cc4C[C@@H](CCCCCCCCC[S+]([O-])CCCC(F)(F)C(F)(F)F)[C@H]3[C@@H]1CC[C@@H]2O` (stereo partly shown) [ICI 182,780, fulvestrant], the “inhibition of AncSR1 (in words)” value (AncSR1) was “competitively inhibited” and the “inhibition of AncSR2 (in words)” value (AncSR2) was “not inhibited”.

In the case of `CC(=O)[C@H]1CCC2C3CCc4cc(O)ccc4C3CC[C@@]21C` (stereo partly shown) [NPT, 19-nor-1,3, 5(10)-pregnatriene-3-ol-20-one], the EC50 (AncSR1-LBD; [5]) is reported as 179 nM, the “activation of AncSR1 (in words)” value (AncSR1-LBD; luciferase reporter) is reported as “almost as potent an AncSR1 activator as endogenous estrogens” and the “Ratio H1/H2 of EC50, preference for non-aromatized A-ring” value (AncSR2-LBD; [6]) is reported as 113.75. For the same molecule, the “Ratio H2/H1 of EC50, preference for non-aromatized A-ring” value (AncSR2-LBD; [6]) was 0.01, the EC50 (AncSR2-LBD) was 182 nM and the EC50 [1] was 5.4 nM. For the same molecule, the EC50 [2] was 8.7 nM and the EC50 [3] was 1.2 nM.

`C[C@]12CCC(=O)C=C1CC[C@@H]1[C@@H]2[C@@H](O)C[C@@]2(C)[C@H]1CC[C@]2(O)C(=O)CO` [cortisol] showed an EC50 (AncSR2-LBD; read-out: EC50) of 9.8 nM and an EC50 [4] of 37 nM.

With `C[C@]12CC[C@@H]3c4ccc(O)cc4CC[C@H]3[C@@H]1CC[C@@H]2O` [estradiol] the EC80 (AncSR1-LBD; AncSR1, estradiol concentration used in inhibition assay) was 200 nM, the EC50 (AncSR1-LBD; [5]) was 49 nM and the EC50 (AncSR1-LBD; AncSR1-ML, Fig. S5B) was 66 nM. The EC50 (AncSR2-LBD; read-out: EC50) was greater than 10000 nM, the EC50 (AncSR1_Alt1) was 50 nM and the EC50 (AncSR1_Alt2) was 350 nM. It also gave an EC50 (AncSR1_Alt3) of 12 nM, an EC50 (AncSR1_Alt4) of 316 nM and an EC50 (AncSR1_Alt5) of 94 nM. It also gave an EC50 [2] of 8.6 nM and an EC50 [3] of 12 nM.
